Measured values published in patent US20130029942A1, “COMPOUNDS AND THERAPEUTICAL USES THEREOF” (Myrexis, Inc., priority 2003, published 2013).
Where two headings read alike, the source gives them in different places.

Tests used:
[1] = target: T1, Human Type II Topoisomerase (p170 Form) (Homo sapiens, UniProt P11388); assay: Photo-crosslinking of radiolabeled compound to Topoisomerase II (SDS gel, autoradiography); assay type: binding; conditions: 50 nM, 60 minutes at room temperature, UV 254 nm, FIG. 3
T1 construct: purchased TopoGEN, Inc., Columbus, Ohio
T1 sequence (P11388 whole entry): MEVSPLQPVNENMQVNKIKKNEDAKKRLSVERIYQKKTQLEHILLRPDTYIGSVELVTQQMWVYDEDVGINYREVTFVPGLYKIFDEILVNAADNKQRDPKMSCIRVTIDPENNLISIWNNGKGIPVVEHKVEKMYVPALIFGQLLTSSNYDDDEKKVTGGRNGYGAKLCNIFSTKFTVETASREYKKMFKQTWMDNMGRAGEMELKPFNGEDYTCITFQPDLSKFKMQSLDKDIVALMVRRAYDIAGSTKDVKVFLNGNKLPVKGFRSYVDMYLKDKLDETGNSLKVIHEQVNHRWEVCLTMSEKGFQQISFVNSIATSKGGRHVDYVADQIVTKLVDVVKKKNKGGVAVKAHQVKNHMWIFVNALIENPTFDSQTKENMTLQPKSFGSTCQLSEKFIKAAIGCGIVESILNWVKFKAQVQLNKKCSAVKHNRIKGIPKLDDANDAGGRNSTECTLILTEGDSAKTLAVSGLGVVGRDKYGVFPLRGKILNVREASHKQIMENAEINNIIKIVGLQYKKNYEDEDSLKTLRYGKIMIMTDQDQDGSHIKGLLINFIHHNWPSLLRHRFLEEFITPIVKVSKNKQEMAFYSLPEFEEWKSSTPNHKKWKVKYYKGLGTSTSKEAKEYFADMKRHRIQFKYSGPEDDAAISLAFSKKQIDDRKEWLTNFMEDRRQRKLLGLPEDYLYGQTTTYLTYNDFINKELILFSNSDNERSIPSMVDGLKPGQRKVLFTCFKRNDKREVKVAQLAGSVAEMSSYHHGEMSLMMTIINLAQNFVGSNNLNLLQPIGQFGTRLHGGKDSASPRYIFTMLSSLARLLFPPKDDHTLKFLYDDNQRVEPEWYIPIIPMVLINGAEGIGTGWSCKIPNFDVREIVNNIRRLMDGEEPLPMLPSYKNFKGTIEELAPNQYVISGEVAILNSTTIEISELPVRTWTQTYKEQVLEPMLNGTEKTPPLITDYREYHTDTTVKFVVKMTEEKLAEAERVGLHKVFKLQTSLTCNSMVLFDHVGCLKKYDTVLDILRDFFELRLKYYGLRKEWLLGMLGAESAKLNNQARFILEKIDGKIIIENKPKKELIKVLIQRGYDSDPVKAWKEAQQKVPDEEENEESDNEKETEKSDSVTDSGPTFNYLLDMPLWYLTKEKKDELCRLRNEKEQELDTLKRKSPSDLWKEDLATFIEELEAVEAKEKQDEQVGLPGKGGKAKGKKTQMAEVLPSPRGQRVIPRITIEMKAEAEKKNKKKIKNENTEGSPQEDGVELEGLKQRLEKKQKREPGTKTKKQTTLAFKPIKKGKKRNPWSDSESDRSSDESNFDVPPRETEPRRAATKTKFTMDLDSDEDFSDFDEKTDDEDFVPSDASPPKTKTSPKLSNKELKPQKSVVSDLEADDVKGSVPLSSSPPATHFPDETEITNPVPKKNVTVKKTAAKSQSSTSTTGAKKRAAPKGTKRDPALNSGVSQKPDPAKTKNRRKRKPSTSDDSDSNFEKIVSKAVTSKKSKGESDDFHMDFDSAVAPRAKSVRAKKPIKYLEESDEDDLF
Experimental: 30 Units (15 ul) Human Type II Topoisomerase (p170 Form) (from TopoGEN, Inc., Columbus, Ohio) was incubated with 50 nM radiolabeled Example 102 compound for 60 minutes at room temperature.
Radiolabeled Example 102 compound stock is 16.67 uM, 60 Ci/mmol, 1 mCi/ml American Radiolabeled Chemicals, Inc., St. Louis, Mo. Samples were either UV irradiated (+) with a short wavelength UV Source (254 nm) for 10 minutes at a distance of 3.5 cm or not irradiated (−). 8 ul of 5× sample buffer (150 mM Tris, pH 6.8, 50% glycerol, 1% SDS, 50 mM dithiothreitol, 62 mg/ml bromophenol blue) was added to the samples and boiled for 5 minutes. The entire sample was then loaded onto a 6% Tris-Glycine SDS-gel (10 well, 1.5 mm thickness) (Invitrogen, Carlsbad, Calif.). The gel was stained with 1% Coomassie Brilliant Blue in 40% methanol, 7.5% acetic acid for 2 hours then de-stained in several changes of de-stainer (40% methanol, 7.5% acetic acid). The gel was then incubated in Amplify (Amersham, Piscataway, N.J.) for 30 minutes at room temperature and then dried down on Whatman filter paper at 80° C. for 2 hours on a gel dryer. The dried gel was put on Hyperfilm (Amersham) in a film cassette and placed at −80° C. for 5-7 days.

[2] = target: tyrosine kinase of Epidermal Growth Factor Receptor (Homo sapiens, UniProt P00533); conditions: Bridges et al. 1996; read-out: IC50 EGFR tyrosine kinase; cited from earlier work
tyrosine kinase of Epidermal Growth Factor Receptor, sequence (P00533 25-1210): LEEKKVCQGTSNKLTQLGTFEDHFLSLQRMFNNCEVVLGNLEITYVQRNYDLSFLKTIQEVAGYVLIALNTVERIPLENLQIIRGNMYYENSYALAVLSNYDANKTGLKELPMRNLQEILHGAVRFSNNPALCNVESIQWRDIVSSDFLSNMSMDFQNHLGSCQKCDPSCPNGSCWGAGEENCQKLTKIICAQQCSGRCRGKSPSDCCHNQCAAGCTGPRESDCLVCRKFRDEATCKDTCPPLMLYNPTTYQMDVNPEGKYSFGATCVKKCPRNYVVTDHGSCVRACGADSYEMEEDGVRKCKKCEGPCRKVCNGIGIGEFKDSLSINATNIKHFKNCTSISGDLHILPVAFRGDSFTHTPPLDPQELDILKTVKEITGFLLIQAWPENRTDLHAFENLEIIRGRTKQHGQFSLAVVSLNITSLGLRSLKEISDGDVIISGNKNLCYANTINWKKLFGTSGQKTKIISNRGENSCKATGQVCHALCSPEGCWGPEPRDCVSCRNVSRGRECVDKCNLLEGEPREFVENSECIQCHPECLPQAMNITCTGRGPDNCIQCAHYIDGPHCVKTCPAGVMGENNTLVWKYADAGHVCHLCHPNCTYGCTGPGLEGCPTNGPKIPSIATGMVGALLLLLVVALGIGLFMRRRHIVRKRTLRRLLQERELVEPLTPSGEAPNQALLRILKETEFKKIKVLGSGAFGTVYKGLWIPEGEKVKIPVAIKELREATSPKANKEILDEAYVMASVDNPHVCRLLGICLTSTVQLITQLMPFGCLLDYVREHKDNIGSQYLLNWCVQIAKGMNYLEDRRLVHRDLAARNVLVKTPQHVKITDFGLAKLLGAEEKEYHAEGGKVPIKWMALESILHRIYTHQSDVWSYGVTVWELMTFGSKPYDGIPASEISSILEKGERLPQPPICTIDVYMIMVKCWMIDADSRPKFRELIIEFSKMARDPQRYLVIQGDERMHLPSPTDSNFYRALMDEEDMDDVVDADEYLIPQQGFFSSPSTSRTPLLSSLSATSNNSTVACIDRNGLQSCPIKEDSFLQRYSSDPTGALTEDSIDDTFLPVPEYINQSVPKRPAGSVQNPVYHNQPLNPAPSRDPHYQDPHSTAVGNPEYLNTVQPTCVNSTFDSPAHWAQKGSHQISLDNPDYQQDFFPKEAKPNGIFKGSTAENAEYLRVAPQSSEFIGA

MX-1 cells = assay: Inhibition of cell proliferation (GI50), CellTiter-Glo, MX-1; assay type: cell-based; conditions: Homo sapiens, MX1, 48 h
Experimental: (§1) T-47D, DLD, H1299, MX-1 and SW620 cells were grown and harvested as in Example 262. […] An aliquot of 45 μL of cells was added to a well of a 96-well microtiter plate containing 5 μL of a 10% DMSO in RPMI-1640 media solution without compound as the control sample for maximal cell proliferation (Lmax). The samples were mixed by agitation and then incubated at 37° C. for 48 h in a 5% CO2—95% humidity incubator. After incubation, the samples were removed from the incubator and 25 μL of CellTiter-Glo™ reagent (Promega) was added. The samples were mixed by agitation and incubated at room temeperature for 10-15 min. Plates were then read using a luminescent plate reader (Model SPECTRAfluor Plus, Tecan) to give Ltest values.
(§2) The samples were mixed by agitation and then incubated at 37° C. for 0.5 h in a 5% CO2—95% humidity incubator. After incubation, the samples were removed from the incubator and 25 μL of CellTiter-Glo™ reagent (Promega) was added. The samples were mixed by agitation and incubated at 37° C. for 10-15 min at room temperature in a 5% CO2—95% humidity incubator. Fluorescence was read as above, (LStart) defining luminescence for initial cell number used as baseline in GI50 determinations.

T-47D cells [3] = assay: Inhibition of cell proliferation (GI50), CellTiter-Glo, T-47D; assay type: cell-based; conditions: Homo sapiens, T47D, 48 h
Experimental: as §1, §2

T-47D cells [4] = assay: Caspase cascade activation / induction of apoptosis in T-47D cells (fluorogenic N-(Ac-DEVD)-N'-ethoxycarbonyl-R110 substrate); assay type: cell-based, human; conditions: Homo sapiens, T47D
MCF-7 cells = assay: Cytotoxicity (ATP-lite cell viability), MCF-7; assay type: cell-based; conditions: Homo sapiens, MCF7; MCF-7, 72 hours
Experimental: (§3) Cytotoxicity of compounds in multidrug resistant cells can be determined by administering compounds to cell lines that overexpress the multidrug resistance pump MDR-1 and determining the viability of the cell lines.
(§4) NCI-ADR/Res, MCF-7, P388, and P388/ADR cell lines were obtained from American Type Culture Collection (Manassas, Va.) and maintained in RPMI-1640 media supplemented with 10% FCS, 10 units/ml penicillin and streptomycin, 2 mM Glutamax and 1 mM sodium pyruvate (Invitrogen Corporation, Carlsbad, Calif.). For compound testing, cells were plated in 96 well dishes at a concentration of 1.5×10^4 cells/well. Cells were allowed to adhere to the plate overnight and then incubated with compounds at final concentrations ranging from 0.13 nM to 10 uM for 72 hours. Cell viability was then assessed using the ATP-lite reagent (Perkin Elmer, Foster City, Calif.). Plates were read on a Wallac Topcount luminescence reader (Perkin Elmer, Foster City, Calif.) and the results graphed in Prism software (Graphpad Software, Inc., San Diego, Calif.). Non-linear regression with variable slope analysis was performed to obtain IC50 concentration values.
(§5) Example 1 compound, docetaxel, and vinblastine were tested for their ability to kill multidrug resistant cells by administering the compounds to NCI-ADR/Res, MCF-7 cells, P388 and P388/ADR cells and determining the viability of the cells.

Topoisomerase II = Topoisomerase II (Homo sapiens, UniProt P11388); assay: Topoisomerase II activity assay (relaxation of supercoiled DNA, gel); conditions: 100 μM, pRYG DNA, FIG. 1
Topoisomerase II, sequence (P11388 whole entry): as the sequence (P11388 whole entry) above

H1299 cells = assay: Inhibition of cell proliferation (GI50), CellTiter-Glo, H1299; assay type: cell-based; conditions: Homo sapiens, NCI-H1299, 48 h
Experimental: as §1, §2

DLD cells = assay: Inhibition of cell proliferation (GI50), CellTiter-Glo, DLD; assay type: cell-based; conditions: Homo sapiens, 48 h
Experimental: as §1, §2

topoisomerase I = target: T2, topoisomerase I (Homo sapiens, UniProt P11387); assay: Topoisomerase I activity assay (relaxation of supercoiled DNA, gel); conditions: Form I DNA, varying concentrations, FIG. 2
T2 sequence (P11387 1-765): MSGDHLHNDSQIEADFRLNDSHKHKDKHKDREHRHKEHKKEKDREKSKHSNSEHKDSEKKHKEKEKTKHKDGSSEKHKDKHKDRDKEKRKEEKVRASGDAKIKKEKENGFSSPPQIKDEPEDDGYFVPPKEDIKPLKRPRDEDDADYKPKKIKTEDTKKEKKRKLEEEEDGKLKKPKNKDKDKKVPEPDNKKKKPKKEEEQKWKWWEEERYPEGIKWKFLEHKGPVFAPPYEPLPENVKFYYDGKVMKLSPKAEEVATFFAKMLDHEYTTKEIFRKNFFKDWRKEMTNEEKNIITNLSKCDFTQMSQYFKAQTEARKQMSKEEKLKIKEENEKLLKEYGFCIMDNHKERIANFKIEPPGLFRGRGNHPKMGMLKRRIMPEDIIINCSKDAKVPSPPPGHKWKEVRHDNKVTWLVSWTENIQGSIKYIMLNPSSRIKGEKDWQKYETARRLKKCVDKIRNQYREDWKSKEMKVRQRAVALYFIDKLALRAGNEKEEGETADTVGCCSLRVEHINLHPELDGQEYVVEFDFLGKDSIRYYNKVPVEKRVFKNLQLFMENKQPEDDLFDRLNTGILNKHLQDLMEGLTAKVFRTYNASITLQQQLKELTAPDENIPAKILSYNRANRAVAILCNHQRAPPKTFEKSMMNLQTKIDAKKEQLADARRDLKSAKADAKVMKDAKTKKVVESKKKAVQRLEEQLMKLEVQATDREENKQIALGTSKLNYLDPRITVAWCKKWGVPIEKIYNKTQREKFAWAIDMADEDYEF

tubulin = tubulin (Bos taurus, UniProt P81947+Q6B856); assay: Inhibition of tubulin polymerization (DAPI fluorescence); assay type: biochemical; conditions: MAP-rich tubulin, 30 minutes at 37° C.
tubulin, sequence (P81947 whole entry): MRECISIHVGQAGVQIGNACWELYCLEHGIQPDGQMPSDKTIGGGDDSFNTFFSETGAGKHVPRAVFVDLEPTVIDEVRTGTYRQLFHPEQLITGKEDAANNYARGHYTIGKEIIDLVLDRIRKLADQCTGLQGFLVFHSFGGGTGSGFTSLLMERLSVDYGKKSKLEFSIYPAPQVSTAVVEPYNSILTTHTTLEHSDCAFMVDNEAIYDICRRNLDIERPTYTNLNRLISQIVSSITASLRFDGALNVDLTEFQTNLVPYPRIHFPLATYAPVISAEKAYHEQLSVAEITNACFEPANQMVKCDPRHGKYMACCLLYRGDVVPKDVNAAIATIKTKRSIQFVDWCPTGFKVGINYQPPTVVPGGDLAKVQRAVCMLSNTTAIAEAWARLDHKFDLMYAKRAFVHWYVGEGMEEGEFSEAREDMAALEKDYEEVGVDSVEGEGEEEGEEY
tubulin, sequence (Q6B856 whole entry): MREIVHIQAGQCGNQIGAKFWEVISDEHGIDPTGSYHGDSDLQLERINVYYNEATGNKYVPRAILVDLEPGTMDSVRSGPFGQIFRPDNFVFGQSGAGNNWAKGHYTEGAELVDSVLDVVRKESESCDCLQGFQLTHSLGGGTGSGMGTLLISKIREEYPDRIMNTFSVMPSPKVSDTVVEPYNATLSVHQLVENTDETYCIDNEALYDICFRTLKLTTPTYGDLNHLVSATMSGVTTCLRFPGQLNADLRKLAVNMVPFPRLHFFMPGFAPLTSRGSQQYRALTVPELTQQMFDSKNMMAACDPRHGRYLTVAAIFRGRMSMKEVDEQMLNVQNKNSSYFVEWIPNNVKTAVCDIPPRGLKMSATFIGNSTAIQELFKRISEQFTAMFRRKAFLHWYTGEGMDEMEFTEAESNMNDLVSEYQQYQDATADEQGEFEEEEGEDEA
Experimental: Lyophilized tubulin (Cytoskeleton #ML113, 1 mg, MAP-rich) was assayed for the effect of the test compound on tubulin polymerization as measured by change in fluorescence for 4′,6-diamidino-2-phenylindole (DAPI) (Barron, D. M. et al. Analytical Biochem., 2003, 315, 49-56). 1 μl of serial dilutions of each test compound (from 100×DMSO stock) was added in 96 well plate format and preincubated for 30 minutes with 94 ul of the non-GTP supplemented tubulin supernatant. 5 μl of DAPI/GTP solution was added to initiate polymerization and incubated for 30 minutes at 37° C. Fluorescence was read with excitation 350 nm, emission wavelength 485 nm on a Tecan Spectraflour Plus. Polymerized tubulin (DMSO and with the tubulin stabilizer Taxol® (paclitaxel)) gives a higher DAPI fluorescence as compared to non-polymerized tubulin (vinblastine and colchicine used to determine baseline).

SW620 cells = assay: Inhibition of cell proliferation (GI50), CellTiter-Glo, SW620; assay type: cell-based; conditions: Homo sapiens, SW-620, 48 h
Experimental: as §1, §2

P388 cells = assay: Cytotoxicity (ATP-lite cell viability), P388; assay type: cell-based, murine; conditions: Mus musculus; P388, 72 hours
Experimental: as §3, §4, §5

P388/ADR cells = assay: Cytotoxicity (ATP-lite cell viability), MDR-1 over-expressing P388/ADR; assay type: cell-based; conditions: Mus musculus, 72 hours
Experimental: as §3, §4, §5

NCI-ADR/Res cells = assay: Cytotoxicity (ATP-lite cell viability), MDR-1 over-expressing NCI-ADR/Res; assay type: cell-based; conditions: Homo sapiens, 72 hours
Experimental: as §3, §4, §5

## Radiolabeled (4-Azido-phenyl)-(2-methyl-quinazolin-4-yl)-methyl-amine [Radiolabeled Example 102 compound]
[1]
  Binding to Topoisomerase II (crosslink on UV irradiation): binds sufficiently well to Topoisomerase II to crosslink to the enzyme when photoactivated

## COc1cc2nc(C)nc(Nc3cccc(Br)c3)c2cc1OC [R1=Me, R2=3′-Br, R3═H]
[2]
  IC50: > 10000 nM

## COc1ccc(N(C)c2nc(Cl)nc3ccccc23)cc1 [Example 1]
MX-1 cells
  GI50: 5 nM
T-47D cells [3]
  GI50: 8 nM
T-47D cells [4]; 24 h, read-out: T-47D (24 hr) EC50 (nM)
  EC50: 2 nM
T-47D cells [4]; read-out: Caspase activation (EC50 nM)
  EC50: 2 nM
MCF-7 cells
  IC50: 2.9 nM
Topoisomerase II
  Inhibition of topoisomerase II-dependent relaxation of supercoiled DNA: inhibition of DNA relaxation is substantial
H1299 cells
  GI50: 6 nM
DLD cells
  GI50: 8 nM
Topoisomerase I
  Effect on topoisomerase I-dependent relaxation of supercoiled DNA: no apparent effect on topoisomerase I activity
tubulin
  IC50: < 500 nM
SW620 cells
  GI50: 3 nM
P388 cells
  IC50: 1.1 nM
P388/ADR cells
  IC50: 2.7 nM
NCI-ADR/Res cells
  IC50: 1.3 nM

## COc1cc2nc(N)nc(Nc3cccc(Br)c3)c2cc1OC [R1═NH2, R2=3′-Br, R3═H]
[2]
  IC50: > 10000 nM
